Columns and labels:
[1] = 1-octanol/phosphate buffer distribution coefficient, log D of the compound at pH 7.4 measured after 30 mins by HPLC-LC/MS based shake flask method; type: physicochemical
[2] = Microsomal stability in human liver microsomes assessed as parent compound remaining after 30 mins; type: ADME, Microsome; settings: read-out: Stabilty
[3] = Microsomal stability in rat liver microsomes assessed as parent compound remaining after 30 mins; type: ADME, Microsome; settings: read-out: Stabilty
[4] = Microsomal stability in monkey liver microsomes assessed as parent compound remaining after 30 mins; type: ADME, Macaca mulatta, Microsome; settings: rhesus monkey, read-out: Stabilty
[5] = Cmax in cynomolgus monkey at 3 mg/kg, po by LC-MS/MS analysis; type: ADME, organism-based, Macaca fascicularis; parameters: route oral, dose 3 mg/kg; settings: in vivo
[6] = Tmax in cynomolgus monkey at 3 mg/kg, po by LC-MS/MS analysis; type: ADME, organism-based, Macaca fascicularis; settings: in vivo
[7] = Half life in cynomolgus monkey at 3 mg/kg, po by LC-MS/MS analysis; type: ADME, organism-based, Macaca fascicularis; settings: in vivo
[8] = AUClast in cynomolgus monkey at 3 mg/kg, po by LC-MS/MS analysis; type: ADME, organism-based, Macaca fascicularis; parameters: time 0 - last, route oral, dose 3 mg/kg; settings: in vivo
[9] = Volume of distribution at steady state in cynomolgus monkey at 1 mg/kg, iv by LC-MS/MS analysis; type: ADME, organism-based, Macaca fascicularis; settings: in vivo, read-out: Vdss
[10] = Clearance in cynomolgus monkey at 1 mg/kg, iv by LC-MS/MS analysis; type: ADME, organism-based, Macaca fascicularis; settings: in vivo
[11] = Bioavailability in cynomolgus monkey at 1 mg/kg, iv by LC-MS/MS analysis; type: ADME, organism-based, Macaca fascicularis; settings: in vivo
[12] = Cmax in mouse at 3 mg/kg, po by LC-MS/MS analysis; type: ADME, organism-based; parameters: route oral, dose 3 mg/kg; settings: in vivo
[13] = Cmax in rat at 3 mg/kg, po by LC-MS/MS analysis; type: ADME, organism-based; parameters: route oral, dose 3 mg/kg; settings: in vivo
[14] = Tmax in rat at 3 mg/kg, po by LC-MS/MS analysis; type: ADME, organism-based; settings: in vivo
[15] = Tmax in mouse at 3 mg/kg, po by LC-MS/MS analysis; type: ADME, organism-based; settings: in vivo
[16] = Half life in rat at 3 mg/kg, po by LC-MS/MS analysis; type: ADME, organism-based; settings: in vivo
[17] = Half life in mouse at 3 mg/kg, po by LC-MS/MS analysis; type: ADME, organism-based; settings: in vivo
[18] = AUClast in rat at 3 mg/kg, po by LC-MS/MS analysis; type: ADME, organism-based; parameters: route oral, time 0 - last, dose 3 mg/kg; settings: in vivo
[19] = AUClast in mouse at 3 mg/kg, po by LC-MS/MS analysis; type: ADME, organism-based; parameters: time 0 - last, route oral, dose 3 mg/kg; settings: in vivo
[20] = Bioavailability in rat at 1 mg/kg, iv by LC-MS/MS analysis; type: ADME, organism-based; settings: in vivo
[21] = Bioavailability in mouse at 1 mg/kg, iv by LC-MS/MS analysis; type: ADME, organism-based; settings: in vivo
[22] = Clearance in rat at 1 mg/kg, iv by LC-MS/MS analysis; type: ADME, organism-based; settings: in vivo
[23] = Clearance in mouse at 1 mg/kg, iv by LC-MS/MS analysis; type: ADME, organism-based; settings: in vivo
[24] = Volume of distribution at steady state in rat at 1 mg/kg, iv by LC-MS/MS analysis; type: ADME, organism-based; settings: in vivo, read-out: Vdss
[25] = Volume of distribution at steady state in mouse at 1 mg/kg, iv by LC-MS/MS analysis; type: ADME, organism-based; settings: in vivo, read-out: Vdss

COc1cc(Oc2ccc3nc(COc4cccc(C(=O)O)c4)n(C)c3n2)cc(C)n1
logD at 0.5 h [1]: 1.2 | remaining at 0.5 h [2]: 91% | remaining at 0.5 h [3]: 98% | remaining at 0.5 h [4]: 100% | Cmax [5]: 500 ng/mL | Tmax [6]: 4.5 h | half-life [7]: 7.3 h | AUC(0-t) [8]: 5120 ng·h/mL | Vd [9]: 0.35 L/kg | clearance [10]: 2.08 mL/min/kg | bioavailability [11]: 18%

COc1cncc(Oc2ccc3nc(COc4cccc(C(=O)O)c4)n(C)c3c2)c1
logD at 0.5 h [1]: 0.9

COc1ccc(Oc2ccc3nc(COc4cccc(C(=O)O)c4)n(C)c3c2)c(C)n1
logD at 0.5 h [1]: 1.7

Cc1ccc(Oc2cc(C)c3nc(COc4cccc(C(=O)O)c4)n(C)c3c2)c(C)n1
logD at 0.5 h [1]: 1.7 | remaining at 0.5 h [2]: 100%

Cc1ccc(Oc2ccc3nc(COc4cccc(C(=O)O)c4)n(C)c3c2F)c(C)n1
Cmax [12]: 1290 ng/mL | logD at 0.5 h [1]: 1.6 | remaining at 0.5 h [2]: 100% | remaining at 0.5 h [3]: 100% | remaining at 0.5 h [4]: 100% | Cmax [5]: 28800 ng/mL | Tmax [6]: 0.5 h | half-life [7]: 9.34 h | AUC(0-t) [8]: 128000 ng·h/mL | Vd [9]: 0.15 L/kg | clearance [10]: 0.4 mL/min/kg | bioavailability [11]: 76% | Cmax [13]: 3490 ng/mL | Tmax [14]: 2.25 h | Tmax [15]: 0.5 h | half-life [16]: 3.45 h | half-life [17]: 4.35 h | AUC(0-t) [18]: 28000 ng·h/mL | AUC(0-t) [19]: 2070 ng·h/mL | bioavailability [20]: 74% | bioavailability [21]: 21% | clearance [22]: 1.29 mL/min/kg | clearance [23]: 4.91 mL/min/kg | Vd [24]: 0.27 L/kg | Vd [25]: 0.62 L/kg

COc1cc(Oc2ccc(C)nc2C)cc2c1nc(COc1cccc(C(=O)O)c1)n2C
logD at 0.5 h [1]: 1.2

COc1cc(Oc2cc(OC(C)C)c3nc(COc4cccc(C(=O)O)c4)n(C)c3c2)ccn1
logD at 0.5 h [1]: 2 | remaining at 0.5 h [2]: 97% | remaining at 0.5 h [3]: 91% | remaining at 0.5 h [4]: 94%

COc1nc(C)ccc1Oc1ccc2nc(COc3cccc(C(=O)O)c3)n(C)c2c1
logD at 0.5 h [1]: 1.4

CCCOc1cc(Oc2ccc(C)nc2C)cc2c1nc(COc1cccc(C(=O)O)c1)n2C
logD at 0.5 h [1]: 2.2

CCOc1cc(Oc2ccc(C)nc2C)cc2c1nc(COc1cccc(C(=O)O)c1)n2C
logD at 0.5 h [1]: 1.6 | remaining at 0.5 h [2]: 100%

CCOc1cc(Oc2ccc3nc(COc4cccc(C(=O)O)c4)n(C)c3c2)ccn1
logD at 0.5 h [1]: 1.8 | remaining at 0.5 h [2]: 94%

COc1ncc(Oc2ccc3nc(COc4cccc(C(=O)O)c4)n(C)c3c2)cc1C
logD at 0.5 h [1]: 2 | remaining at 0.5 h [2]: 100% | remaining at 0.5 h [3]: 82% | remaining at 0.5 h [4]: 98%

COc1ccc(Oc2ccc3nc(COc4cccc(C(=O)O)c4)n(C)c3c2)cn1
logD at 0.5 h [1]: 1.3

Cc1cc(Oc2ccc3nc(COc4cccc(C(=O)O)c4)n(C)c3c2)cc(C)n1
logD at 0.5 h [1]: 1

Cc1ncccc1Oc1ccc2nc(COc3cccc(C(=O)O)c3)n(C)c2c1
logD at 0.5 h [1]: 1 | remaining at 0.5 h [2]: 98%

COc1cc(Oc2cc(C)c3nc(COc4cccc(C(=O)O)c4)n(C)c3c2)ccn1
logD at 0.5 h [1]: 1.7 | remaining at 0.5 h [2]: 100%

Cc1cc(Oc2ccc3nc(COc4cccc(C(=O)O)c4)n(C)c3c2)ccn1
logD at 0.5 h [1]: 0.9 | remaining at 0.5 h [2]: 100%

CCc1cc(Oc2ccc3nc(COc4cccc(C(=O)O)c4)n(C)c3c2)ccn1
logD at 0.5 h [1]: 1.3 | remaining at 0.5 h [2]: 88%

Cc1ccc(Oc2ccc3nc(COc4cccc(C(=O)O)c4)n(C)c3c2)c(C)n1
logD at 0.5 h [1]: 1.3 | remaining at 0.5 h [2]: 100% | remaining at 0.5 h [3]: 100% | remaining at 0.5 h [4]: 100%

COc1ncccc1Oc1ccc2nc(COc3cccc(C(=O)O)c3)n(C)c2c1
logD at 0.5 h [1]: 0.9

CCOc1cc(Oc2ccnc(OC)c2)cc2c1nc(COc1cccc(C(=O)O)c1)n2C
logD at 0.5 h [1]: 1.7 | remaining at 0.5 h [2]: 100%

Cc1cnc(Oc2cc(OC(C)C)c3nc(COc4cccc(C(=O)O)c4)n(C)c3c2)c(C)c1
logD at 0.5 h [1]: 2 | remaining at 0.5 h [2]: 96% | remaining at 0.5 h [3]: 13% | remaining at 0.5 h [4]: 84%

Cn1c(COc2cccc(C(=O)O)c2)nc2ccc(Oc3ccnc(Cl)c3)cc21
logD at 0.5 h [1]: 1.1

COc1cc(Oc2ccc3nc(COc4cccc(C(=O)O)c4)n(C)c3c2)cc(C)n1
logD at 0.5 h [1]: 1.7 | remaining at 0.5 h [2]: 96% | remaining at 0.5 h [3]: 96% | remaining at 0.5 h [4]: 85%

Cc1ccncc1Oc1ccc2nc(COc3cccc(C(=O)O)c3)n(C)c2c1
logD at 0.5 h [1]: 0.8 | remaining at 0.5 h [2]: 100%

Cn1c(COc2cccc(C(=O)O)c2)nc2ccc(Oc3cccnc3)cc21
logD at 0.5 h [1]: 0.5 | remaining at 0.5 h [2]: 100%

COc1cc(Oc2ccc3nc(COc4cccc(C(=O)O)c4)n(C)c3c2F)ccn1
logD at 0.5 h [1]: 1.7 | remaining at 0.5 h [2]: 97%

Cc1ccc(Oc2ccc3nc(COc4cccc(C(=O)O)c4)n(C)c3c2C)c(C)n1
logD at 0.5 h [1]: 1.8

Cc1cnc(Oc2ccc3nc(COc4cccc(C(=O)O)c4)n(C)c3c2)c(C)c1
remaining at 0.5 h [4]: 80% | clearance [10]: 2.06 mL/min/kg | bioavailability [11]: 89%

Cc1ccc(Oc2ccc3nc(COc4cccc(C(=O)O)c4)n(C)c3c2)cn1
logD at 0.5 h [1]: 0.8 | remaining at 0.5 h [2]: 87%

Cc1cncc(Oc2ccc3nc(COc4cccc(C(=O)O)c4)n(C)c3c2)c1
logD at 0.5 h [1]: 1

CCOc1cc(Oc2ncc(C)cc2C)cc2c1nc(COc1cccc(C(=O)O)c1)n2C
logD at 0.5 h [1]: 1.7 | remaining at 0.5 h [2]: 100%

COc1cc(Oc2ccc3nc(COc4cccc(C(=O)O)c4)n(C)c3c2)ccn1
logD at 0.5 h [1]: 1.3 | remaining at 0.5 h [2]: 98% | remaining at 0.5 h [3]: 100% | remaining at 0.5 h [4]: 100%

Cc1ccc(Oc2cc(OC(C)C)c3nc(COc4cccc(C(=O)O)c4)n(C)c3c2)c(C)n1
logD at 0.5 h [1]: 1.9 | remaining at 0.5 h [2]: 91% | remaining at 0.5 h [3]: 65% | remaining at 0.5 h [4]: 81%
